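The compound was tested at five concentrations on cells cultured in 96-well plates, with a 48-hour exposure period. GI50 marks 50% less growth.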 Calls of active or inactive are those of the source. No stated cut-off is given here; in the data, active = GI50 up to about 1.1 µM and inactive = higher.
What was measured:
Test in all cases: growth of human tumour cells (NCI), 48 h
MDA-MB-231 = tested on: MDA-MB-231
CCRF-CEM = tested on: CCRF-CEM
OVCAR-4 = tested on: OVCAR-4
KM12 = tested on: KM12
HOP-62 = tested on: HOP-62
TK-10 = tested on: TK-10
A498 = tested on: A498
MDA-N = tested on: MDA-N
UACC-62 = tested on: UACC-62
786-0 = tested on: 786-0
SK-MEL-2 = tested on: SK-MEL-2
A549 = tested on: A549
OVCAR-5 = tested on: OVCAR-5
IGROV-1 = tested on: IGROV-1
SK-OV-3 = tested on: SK-OV-3
COLO 205 = tested on: COLO 205
MCF7 = tested on: MCF7
SK-MEL-5 = tested on: SK-MEL-5
RPMI-8226 = tested on: RPMI-8226
M14 = tested on: M14
SNB-19 = tested on: SNB-19
MDA-MB-435 = tested on: MDA-MB-435
NCI-H23 = tested on: NCI-H23
LOX IMVI = tested on: LOX IMVI
NCI-H226 = tested on: NCI-H226
HL-60 = tested on: HL-60
HCC 2998 = tested on: HCC 2998
PC-3 = tested on: PC-3
K562 = tested on: K562
HCT-116 = tested on: HCT-116
SF-295 = tested on: SF-295
NCI-H522 = tested on: NCI-H522
HCT-15 = tested on: HCT-15
Malme-3M = tested on: Malme-3M
RXF 393 = tested on: RXF 393
BT-549 = tested on: BT-549
ACHN = tested on: ACHN
OVCAR-8 = tested on: OVCAR-8
SN12C = tested on: SN12C
SW-620 = tested on: SW-620
UACC-257 = tested on: UACC-257
UO-31 = tested on: UO-31
EKVX = tested on: EKVX
NCI/ADR-RES = tested on: NCI/ADR-RES
SK-MEL-28 = tested on: SK-MEL-28
SF-268 = tested on: SF-268
Hs-578T = tested on: Hs-578T
U-251 = tested on: U-251
HT-29 = tested on: HT-29
T47D = tested on: T47D
HOP-92 = tested on: HOP-92
CAKI-1 = tested on: CAKI-1
DU-145 = tested on: DU-145
SF-539 = tested on: SF-539
NCI-H460 = tested on: NCI-H460
OVCAR-3 = tested on: OVCAR-3
SNB-75 = tested on: SNB-75
SR = tested on: SR
MOLT-4 = tested on: MOLT-4

For `O=C(O)/C(Cc1ccc([N+](=O)[O-])cc1)=N\O`, the GI50 (MDA-MB-231) was > 100 µM (inactive), the GI50 (CCRF-CEM) was 73.6 µM (inactive) and the GI50 (OVCAR-4) was 89.5 µM (inactive). For the same compound, the GI50 (KM12) was > 100 µM (inactive), the GI50 (HOP-62) was > 100 µM (inactive) and the GI50 (TK-10) was > 100 µM (inactive). The GI50 (A498) was > 100 µM (inactive), the GI50 (MDA-N) was > 100 µM (inactive) and the GI50 (UACC-62) was > 100 µM (inactive). The GI50 (786-0) was > 100 µM (inactive), the GI50 (SK-MEL-2) was > 100 µM (inactive) and the GI50 (A549) was > 100 µM (inactive). The GI50 (OVCAR-5) was > 100 µM (inactive), the GI50 (IGROV-1) was 69.8 µM (inactive) and the GI50 (SK-OV-3) was > 100 µM (inactive). For the same compound, the GI50 (COLO 205) was > 100 µM (inactive), the GI50 (MCF7) was > 100 µM (inactive) and the GI50 (SK-MEL-5) was > 100 µM (inactive). The GI50 (RPMI-8226) was > 100 µM (inactive), the GI50 (M14) was > 100 µM (inactive) and the GI50 (SNB-19) was > 100 µM (inactive). For the same compound, the GI50 (MDA-MB-435) was > 100 µM (inactive), the GI50 (NCI-H23) was > 100 µM (inactive) and the GI50 (LOX IMVI) was > 100 µM (inactive). The GI50 (NCI-H226) was > 100 µM (inactive), the GI50 (HL-60) was 61.9 µM (inactive) and the GI50 (HCC 2998) was > 100 µM (inactive). The GI50 (PC-3) was > 100 µM (inactive), the GI50 (K562) was > 100 µM (inactive) and the GI50 (HCT-116) was > 100 µM (inactive). The GI50 (SF-295) was > 100 µM (inactive), the GI50 (NCI-H522) was 29.6 µM (inactive) and the GI50 (HCT-15) was over 100000 nM. For the same compound, the GI50 (Malme-3M) was > 100 µM (inactive), the GI50 (RXF 393) was > 100 µM (inactive) and the GI50 (BT-549) was 76.2 µM (inactive). The GI50 (ACHN) was > 100 µM (inactive), the GI50 (OVCAR-8) was > 100 µM (inactive) and the GI50 (SN12C) was > 100 µM (inactive). For the same compound, the GI50 (SW-620) was > 100 µM (inactive), the GI50 (UACC-257) was > 100 µM (inactive) and the GI50 (UO-31) was 23.8 µM (inactive). The GI50 (EKVX) was 39.1 µM (inactive), the GI50 (NCI/ADR-RES) was > 100 µM (inactive) and the GI50 (SK-MEL-28) was > 100 µM (inactive). The GI50 (SF-268) was > 100 µM (inactive), the GI50 (Hs-578T) was 31.8 µM (inactive) and the GI50 (U-251) was > 100 µM (inactive). The GI50 (HT-29) was > 100 µM (inactive), the GI50 (T47D) was 94.6 µM (inactive) and the GI50 (HOP-92) was 27.9 µM (inactive). For the same compound, the GI50 (CAKI-1) was > 100 µM (inactive), the GI50 (DU-145) was > 100 µM (inactive) and the GI50 (SF-539) was > 100 µM (inactive). For the same compound, the GI50 (NCI-H460) was > 100 µM (inactive) and the GI50 (OVCAR-3) was > 100 µM (inactive).
With `Cc1cc(O)c2c(c1)C(C1c3cccc(O)c3C(=O)c3c(O)cc(C)cc31)c1cccc(O)c1C2=O` (centres undefined) the GI50 (MDA-MB-231) was 0.405 µM (active), the GI50 (CCRF-CEM) was 0.906 µM (active) and the GI50 (OVCAR-4) was 0.26 µM (active). The GI50 (SNB-75) was 243 nM (active), the GI50 (KM12) was 0.166 µM (active) and the GI50 (HOP-62) was 0.432 µM (active). For the same compound, the GI50 (TK-10) was 0.598 µM (active), the GI50 (MDA-N) was 0.705 µM (active) and the GI50 (UACC-62) was 0.269 µM (active). For the same compound, the GI50 (786-0) was 0.466 µM (active), the GI50 (SK-MEL-2) was 0.294 µM (active) and the GI50 (A549) was 0.239 µM (active). The GI50 (OVCAR-5) was 0.766 µM (active), the GI50 (IGROV-1) was 0.378 µM (active) and the GI50 (SK-OV-3) was 0.356 µM (active). The GI50 (COLO 205) was 0.177 µM (active), the GI50 (MCF7) was 0.331 µM (active) and the GI50 (SK-MEL-5) was 0.212 µM (active). For the same compound, the GI50 (RPMI-8226) was 0.158 µM (active), the GI50 (M14) was 0.327 µM (active) and the GI50 (SNB-19) was 0.239 µM (active). The GI50 (MDA-MB-435) was 0.34 µM (active), the GI50 (NCI-H23) was 0.37 µM (active) and the GI50 (LOX IMVI) was 0.354 µM (active). The GI50 (NCI-H226) was 0.605 µM (active), the GI50 (HL-60) was 0.879 µM (active) and the GI50 (HCC 2998) was 1.1 µM (active). The GI50 (PC-3) was 0.105 µM (active), the GI50 (K562) was 1.02 µM (active) and the GI50 (SR) was 345 nM (active). The GI50 (HCT-116) was 0.314 µM (active), the GI50 (SF-295) was 0.286 µM (active) and the GI50 (NCI-H522) was 0.417 µM (active). The GI50 (HCT-15) was 317 nM, the GI50 (Malme-3M) was 0.329 µM (active) and the GI50 (RXF 393) was 0.22 µM (active). For the same compound, the GI50 (BT-549) was 0.292 µM (active), the GI50 (ACHN) was 0.337 µM (active) and the GI50 (OVCAR-8) was 0.335 µM (active). The GI50 (SN12C) was 0.322 µM (active), the GI50 (SW-620) was 0.448 µM (active) and the GI50 (UACC-257) was 0.3 µM (active). The GI50 (UO-31) was 0.306 µM (active), the GI50 (MOLT-4) was 615 nM (active) and the GI50 (EKVX) was 0.417 µM (active). The GI50 (NCI/ADR-RES) was 0.319 µM (active), the GI50 (SK-MEL-28) was 0.394 µM (active) and the GI50 (SF-268) was 0.311 µM (active). The GI50 (Hs-578T) was 0.175 µM (active), the GI50 (U-251) was 0.31 µM (active) and the GI50 (HT-29) was 0.378 µM (active). The GI50 (T47D) was 0.631 µM (active), the GI50 (HOP-92) was 0.258 µM (active) and the GI50 (CAKI-1) was 2.86 µM (inactive). The GI50 (DU-145) was 0.4 µM (active), the GI50 (SF-539) was 0.21 µM (active) and the GI50 (NCI-H460) was 0.198 µM (active). The GI50 (OVCAR-3) was 0.25 µM (active).
